The values below come from patent publication US6156724A, “Uses of didemnins as immunomodulating agents” (priority 1998, dated 2000).

In data set [1] the test system is Balb/c splenocytes (resting lymphocytes). The experiment in a line: Lymphocyte viability (LcV) assay. The following applies: unstimulated Balb/c splenocytes, MTT. It is filed as cell-based, murine. An outline of the steps:
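Resting Balb/c splenocytes incubated with compounds under MLR-equivalent conditions, then pulsed overnight with MTT; formazan dissolved in isopropanol and absorbance read at 570 nm. Viability expressed as percent of untreated Balb/c control metabolic activity, with LC50 interpolated.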

The subject of data set [2] is CB6F1 mice grafted with Balb/c splenocytes. The experiment in a line: Graft vs host reaction (GVHR) splenomegaly assay. Type of data set: in vivo. To be noted: for alive day 8 / body weight change day 5 / body weight day 5 (g ± SD) / index (spleen wt. treated/spleen wt. syngenetic injection) / mean group spleen wt. normalized to day 8 body weight: QD 1-7, ip. Here is the method: Three representative compounds didemnin M (38), O-pGlu-DB (37), and didemnin B (1)-showing high (37,38) or moderate (1) in vivo immunosuppressive activity were subsequently evaluated in a multidose assay (0.16,0.016, and 0.0016 mg/kg per injection; qd 1-7) for their in vivo immunosuppressive effects on the GVHR splenomegaly assay.
Three didemnins (didemnin B, didemnin M, and pGlu-didemnin B) were evaluated in a modified Simonsen splenomegaly assay. Briefly, an F1 hybrid host animal is grated with immunocompetent spleen cells from the parent strain. The index used to measure the success of the GVHR is splenomegaly (increased spleen weight due to cellular proliferation of grafted lymphocytes). An index>1.3 (graft index) is considered to be a successful graft rejection of the recipient animal. Immunosuppression is considered as a reduction of the graft index.
On day O, CB6F1 female mice, 4 weeks of age, were grated by intraperitoneal (ip) injection of 50×10^5 splenocytes from BALB/c female mice in high-glucose ([…]) Dulbecco's modified Eagles medium. A syngeneic control group (CB6F1 --CB6F1) was similarly prepared and served as the negative control. Grafted mice were divided into treatment groups containing six mice each. Groups were injected ip with test compound (dissolved in vehicle; 1% abs. EtOH in sterile phosphate-buffered saline) at one of three dose levels (0.16, 0.016, and 0.0016 mg/kg per injection) in a multidose assay, cyclophosphamide (200 mg/kg per injection) or vehicle on days 1-7 (qd 1-7). On day 8 all groups were sacrificed, spleens were excised, and a graft index was calculated for each group by the following formula: [formula]

Data set [3] relates to concanavalin A-induced lymphoblasts (Con A splenocytes). Put plainly: Lymphoblast viability (LbV) assay. To be noted: Con A-stimulated splenocytes (lymphoblasts), MTT.
The subject of a further data set is Rift Valley fever virus. To be noted: mouse, in vivo; cited from earlier work.
Data set [4] has as its system murine splenocytes (Balb/c and C57B1/6). The experiment in a line: Two-way mixed lymphocyte reaction (MLR) assay.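 Also: proliferation read as tritiated thymidine incorporation into newly made DNA after an overnight pulse, expressed as percent of control activity, IC50 interpolated per compound.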
[5] abbreviates: 160 μg/kg per injection (highest dose).
The mark [6] stands for this setting: Balb/c + C57B1/6 splenocytes, 96 h, [3H]thymidine.
The mark [7] stands for this setting: read-out: two-way mixed lymphocyte reaction (MLR) suppression MLR, IC50, Balb/c + C57B1/6 splenocytes, 96 h, [3H]thymidine.

Read-outs that look alike come from different tables or passages of the source. Numbered stars: 1 amine (or outer) side, 2 acyl side, 3 side chain; on linkers, the order of the positions; unused ones are H or OH. Bridge positions count the residues as written; N and C are the ends. Square brackets hold non-standard residues; d marks the D form. Peptide text beside a SMILES is read from it. X1 = CC[C@H](C)[C@@H](N[*:1])[C@@H](O)CC(=O)O[C@H](C(=O)[C@H](C)C(=O)[*:2])C(C)C; NMeY = CN[C@@H](Cc1ccc(O)cc1)C(=O)O; dNMeL = CN[C@H](CC(C)C)C(=O)O; pGlu = O=C1CC[C@@H](C(=O)O)N1; Lac = C[C@H](O)C(=O)O

A word on the IC50: it is the concentration that gives 50% inhibition. On to `CC[C@H](C)[C@H]1NC(=O)[C@@H](NC(=O)[C@@H](CC(C)C)N(C)C(=O)[C@@H]2CCCN2C(=O)C(C)O)[C@@H](C)OC(=O)[C@H](Cc2ccc(OC)cc2)N(C)C(=O)[C@@H]2CCCN2C(=O)[C@H](CC(C)C)NC(=O)[C@@H](C)C(=O)[C@H](C(C)C)OC(=O)C[C@@H]1O` (stereo partly drawn) [Compound 1, didemnin B], for which the results for the “cytoxicity to lymphocytes LcV, LC50” value in data set [1] and in data set [1] (highest concentration 10 μg/mL) were 6.34 µM and 7.00 µg/mL, respectively. The “suppression of allogeneically induced splenomegaly response compared to control” value is reported as “not effective” in data set [2] (1.6 μg/kg per injection), 53% in data set [2] (16 μg/kg per injection) and 66% in data set [2] (160 μg/kg per injection). Moreover, the “alive day 8” value in data set [2] (0.0016 mg/Kg/day), in data set [2] (0.016 mg/Kg/day) and in data set [2] (0.16 mg/Kg/day) was 100% each time. The results for the “body weight change day 5” value in data set [2] (0.0016 mg/Kg/day), in data set [2] (0.016 mg/Kg/day) and in data set [2] (0.16 mg/Kg/day) were 1.0 g, 1.0 g and -1.4 g, respectively. For the same compound, the “body weight day 5 (g ± SD)” value in data set [2] (0.0016 mg/Kg/day) is 18.4 ± 0.8 g; in data set [2] (0.016 mg/Kg/day), 18.2 ± 0.7 g; in data set [2] (0.16 mg/Kg/day), 15.6 ± 1.6 g. Moreover, the “index (spleen wt. treated/spleen wt. syngenetic injection)” value in data set [2] (0.0016 mg/Kg/day) was 1.91; in data set [2] (0.016 mg/Kg/day), 1.33; in data set [2] (0.16 mg/Kg/day), 1.24. The results for the “mean group spleen wt. normalized to day 8 body weight” value (“mean group spleen wt. normalized” below) in data set [2] (0.0016 mg/Kg/day), in data set [2] (0.016 mg/Kg/day) and in data set [2] (0.16 mg/Kg/day) were 6.1, 4.2 and 4.0, respectively. In data set [2] (setting [5]), the “toxicity to the animals” value is given as “neither was toxic”. Moreover, the “cytotoxicity to lymphocytes LbV, LC50” value in data set [3] is 600 pM. The “protected Rift Valley fever virus-infected mice” value in the data set on Rift Valley fever virus is given as 90%. Besides, the “two-way mixed lymphocyte reaction (MLR) suppression MLR, IC50” value (from here on “two-way mixed lymphocyte reaction”) in data set [4] (setting [6]) is given as 0.46 ng/mL. Also, in data set [4] (setting [7]), the half-maximal inhibitory concentration (IC50) stood at 0.42 nM.

As for `CC[C@H](C)[C@H]1NC(=O)[C@@H](NC(=O)[C@@H](CC(C)C)N(C)C(=O)[C@@H]2CCCN2C(=O)[C@H](C)OC(=O)[C@@H]2CCC(=O)N2)[C@@H](C)OC(=O)[C@H](Cc2ccc(OC)cc2)N(C)C(=O)[C@@H]2CCCN2C(=O)[C@H](CC(C)C)NC(=O)[C@@H](C)C(=O)[C@H](C(C)C)OC(=O)C[C@@H]1O` [Compound 37, O-Pyroglutamyldidemnin B] ([pGlu][Lac]P[dNMeL]T[X1]LP[NMeY](Me); ester 5-C), the “cytoxicity to lymphocytes LcV, LC50” value in data set [1] is more than 8.20 µM; in data set [1] (highest concentration 10 μg/mL), more than 10 µg/mL. In addition, the “alive day 8” value in data set [2] (0.0016 mg/Kg/day), in data set [2] (0.016 mg/Kg/day) and in data set [2] (0.16 mg/Kg/day) was 100% throughout. The results for the “body weight change day 5” value in data set [2] (0.0016 mg/Kg/day), in data set [2] (0.016 mg/Kg/day) and in data set [2] (0.16 mg/Kg/day) were 0.4 g, 0.8 g and -0.6 g, respectively. In addition, the “body weight day 5 (g ± SD)” value is reported as 17.4 ± 1.7 g in data set [2] (0.0016 mg/Kg/day), 17.2 ± 1.5 g in data set [2] (0.016 mg/Kg/day) and 15.2 ± 1.2 g in data set [2] (0.16 mg/Kg/day). Besides, the entries for the “index (spleen wt. treated/spleen wt. syngenetic injection)” value in data set [2] (0.0016 mg/Kg/day), in data set [2] (0.016 mg/Kg/day) and in data set [2] (0.16 mg/Kg/day) were 1.63, 1.76 and 1.32, respectively. For the same compound, the “mean group spleen wt. normalized” value is reported as 5.2 in data set [2] (0.0016 mg/Kg/day), 5.6 in data set [2] (0.016 mg/Kg/day) and 4.2 in data set [2] (0.16 mg/Kg/day). Besides, the “suppression of allogeneically induced splenomegaly response compared to control” value in data set [2] (160 μg/kg per injection) turned out to be 54%. For the same compound, the “toxicity to the animals” value in data set [2] (setting [5]) was “neither was toxic”. The “cytotoxicity to lymphocytes LbV, LC50” value in data set [3] stood at 79 pM. For the same compound, the “two-way mixed lymphocyte reaction” value in data set [4] (setting [6]) is given as 0.007 ng/mL. The IC50 in data set [4] (read-out: MLR IC50) and in data set [4] (setting [7]) was 0.0053 nM throughout.

`CC[C@H](C)[C@H]1NC(=O)[C@@H](NC(=O)[C@@H](CC(C)C)N(C)C(=O)[C@@H]2CCCN2C(=O)[C@H](C)OC(=O)[C@H](CCC(N)=O)NC(=O)[C@@H]2CCC(=O)N2)[C@@H](C)OC(=O)[C@H](Cc2ccc(OC)cc2)N(C)C(=O)[C@@H]2CCCN2C(=O)[C@H](CC(C)C)NC(=O)[C@@H](C)C(=O)[C@H](C(C)C)OC(=O)C[C@@H]1O` [Compound 38, Didemnin M] ([pGlu]Q[Lac]P[dNMeL]T[X1]LP[NMeY](Me); ester 6-C): the “cytoxicity to lymphocytes LcV, LC50” value in data set [1] is more than 7.41 µM. Also, the “cytoxicity to lymphocytes LcV, LC50” value in data set [1] (highest concentration 10 μg/mL) is more than 10 µg/mL. The “suppression of allogeneically induced splenomegaly response compared to control” value in data set [2] (1.6 μg/kg per injection) is recorded as 61%. In data set [2] (0.0016 mg/Kg/day), the “alive day 8” value stood at 100%, the “body weight change day 5” value came out at 1.4 g, the “body weight day 5 (g ± SD)” value was 17.2 ± 1.2 g and the “index (spleen wt. treated/spleen wt. syngenetic injection)” value was 1.27. Moreover, in data set [2] (0.0016 mg/Kg/day), the “mean group spleen wt. normalized” value came to 4.1. In addition, in data set [2] (0.016 mg/Kg/day), the “alive day 8” value amounted to 100%, the “body weight change day 5” value is on record as -0.2 g, the “body weight day 5 (g ± SD)” value is recorded as 17.8 ± 0.7 g and the “index (spleen wt. treated/spleen wt. syngenetic injection)” value is reported as 1.38. In addition, the “mean group spleen wt. normalized” value in data set [2] (0.016 mg/Kg/day) was determined as 4.4. Besides, in data set [2] (0.16 mg/Kg/day), the “alive day 8” value was determined as 100%, the “body weight change day 5” value came to 1.0 g, the “body weight day 5 (g ± SD)” value is 16.4 ± 1.0 g and the “index (spleen wt. treated/spleen wt. syngenetic injection)” value is reported as 1.54. For the same compound, the “mean group spleen wt. normalized” value in data set [2] (0.16 mg/Kg/day) is given as 4.9. Besides, in data set [2] (16 and 160 μg/kg), the “toxicity to the animals” value is “not toxic”. For the same compound, the “cytotoxicity to lymphocytes LbV, LC50” value in data set [3] is 250 pM. In data set [4] (setting [6]), the “two-way mixed lymphocyte reaction” value is given as 0.001 ng/mL.

On to Didemnin Y [Compound 42], for which the “cytoxicity to lymphocytes LcV, LC50” value in data set [1] was more than 5.57 µM; in data set [1] (highest concentration 10 μg/mL), more than 10 µg/mL. For the same compound, in data set [3], the “cytotoxicity to lymphocytes LbV, LC50” value is 1100 pM. In addition, in data set [4] (setting [6]), the “two-way mixed lymphocyte reaction” value was 0.89 ng/mL. In addition, the half-maximal inhibitory concentration (IC50) in data set [4] (setting [7]) was 0.5 nM.

Consider “[Anhydro1st^2 ][Phth-Ala^9 ]DB [Compound 9]”, for which the “cytoxicity to lymphocytes LcV, LC50” value in data set [1] was more than 8.2 µM; in data set [1] (highest concentration 10 μg/mL), more than 10 µg/mL. The “cytotoxicity to lymphocytes LbV, LC50” value in data set [3] is 1900 pM. The “two-way mixed lymphocyte reaction” value in data set [4] (setting [6]) turned out to be 0.30 ng/mL. Moreover, the IC50 in data set [4] (setting [7]) was 0.25 nM.

As to [Phth-Ala^9 ]DB [Compound 8], the “cytoxicity to lymphocytes LcV, LC50” value in data set [1] was more than 8.1 µM; in data set [1] (highest concentration 10 μg/mL), more than 10 µg/mL. Besides, the “cytotoxicity to lymphocytes LbV, LC50” value in data set [3] turned out to be 810 pM. In addition, the “two-way mixed lymphocyte reaction” value in data set [4] (setting [6]) is recorded as 0.49 ng/mL. Further, the IC50 in data set [4] (setting [7]) was determined as 0.39 nM.
